Measurements from patent US20230128114A1, “METHODS AND COMPOSITIONS FOR TREATING OR PREVENTING AN INFLAMMATORY CONDITION” (priority 2020, published 2023).
Like-named read-outs stand apart in the source and are kept apart here.

How the values were obtained:
[1] = test system: LPS-induced pulmonary inflammation; test: LPS-induced pulmonary inflammation: BALF white blood cell count; assay type: in vivo, C57BL/B6 mice; conditions: CBD 10 mg/kg, HCQ 2.5 mg/kg, alone or combined
Method: Male C57BL/B6 mice weighing 10-20 g were used. Vehicle and active agents (i.e., CBD and hydroxychloroquine) alone or in combination were administered intraperitoneally (IP) at 1 hour before LPS (˜80 mg/kg) was administered intratracheally. 24 hours after LPS injection, mice were anaesthetized with pentoparbital and 0.5 mL of PBS was administered twice through a tracheal cannula after which approximately 0.6 mL of broncheoalveolar lavage fluid (BALF) was obtained. The BALF was assayed for IL-1β, TNF-α, MCP-1(MCAF) and CXCL-1 by Luminex. ANOVA followed by Dunnett's test was applied for comparison between vehicle and treatment groups. p<0.05 was considered significant.
BALF collected from mice were also analysed for white blood cell (WBC) count using an automatic haematology analyser. Cell counts were normalised using sham treated mice, and analysed relative to the highest values across the groups (Table 27).

[2] = test system: LPS-induced pulmonary inflammation; test: LPS-induced pulmonary inflammation: BALF cytokines, synergy analysis; assay type: in vivo, C57BL/B6 mice; conditions: CBD 1 mg/kg, HCQ 25 mg/kg, alone or combined; observed
[3] = test system: human peripheral blood mononuclear cells (PBMCs) stimulated with bacterial lipopolysaccharide (LPS); test: Cytokine release from LPS-stimulated human PBMCs (checkerboard, Luminex), Bliss synergy; assay type: cell-based; conditions: PBMC
Method: The anti-inflammatory activity the combination of CBD and hydroxychloroquine was assessed by determining cytokine release from human peripheral blood mononuclear cells (PBMCs) stimulated with bacterial lipopolysaccharide (LPS) using a Luminex based assay. A 96-well microtitre plate-based checkerboard assay with seven concentrations (including the no drug control) of CBD and hydroxychloroquine were assessed in combination was used to determine the drug-drug interaction. Briefly, frozen PMBCs from two independent donors were thawed, diluted in culture medium, seeded into 96-well microtitre plates and incubated at 37° C., 5% CO2 for 1 hour prior to the addition of test compounds. After the addition of the test compounds the cells were returned to the incubator for 1 hour, after which LPS was added to the wells. Plates were incubated at 37° C., 5% CO2 for 24 hours. After 24 hours, cell culture supernatants were removed and analysed for cytokine levels using Luminex methodology according to manufacturers' instructions. All values had the vehicle background subtracted prior to further analysis. Three plates were set up in parallel using the PBMCs from the same donor. Inhibition of cytokine release was determined relative to the no treatment control (i.e., that was stimulated with LPS) and averaged across the three replicates. A cytotoxicity assay using AlmarBlue with the identical plate set up was performed in parallel.
Drug synergy was determined using the Bliss Independence method where the predicted effect of the drug combination is calculated using the equation: […]
Synergy values for each combination of drug concentrations were calculated using the Excess Over Bliss method (the difference between the observed and predicted inhibition) described by, e.g., Liu et al. (2018, Statistics in Biopharmaceutical Research, 10: 112-122, where a value greater than 0 is indicative of synergy and the higher the value the stronger the synergy.

[4] = test system: collagen-induced arthritis; test: Collagen-induced arthritis; assay type: in vivo, Lewis rats; parameters: key to Clinical score Day 24, relative reduction / Pannus score, relative reduction / Total histology score, relative reduction: fractional reduction vs vehicle control, sham-baseline subtracted
Method: Female Lewis rats were challenged with porcine type-II collagen with Freund's adjuvant on Day 1 (0.2 mg/0.2 mL/rat) by subcutaneous injection at the base of the tail to induce arthritis. A booster injection at 0.1 mg/0.1 mL/rat) was administered on Day 7. On Day 16, rats were allocated into groups of six based on hind paw volume, with animals allocated into groups to provide a similar distribution of hind paw volumes.
Vehicle and active agents (i.e., CBD and hydroxychloroquine) alone or in combination were administered intraperitoneally (IP) once a day starting from Day 17 to Day 30, i.e., for a total of 14 consecutive days.
Disease was assessed by measuring hind paw volume with plethysmometer and using a qualitative severity score system as outlined in Table 32 on Day 1, 7, 10, 14, 16, 18, 20, 22, 24, 26, 28 and 30.
Post-termination on Day 30, blood was collected from all rats and analysed for levels of the inflammatory cytokines IL-1β, IL-6 and TNF-α by ELISA. Both hind paws were harvested, weighed and formalin-fixed for histopathology. Tissue was assessed to evaluate cartilage and bone destruction by pannus formation and mononuclear cell infiltration in synovial tissues according to the scoring matrices set out in Tables 33 and 34. A total histology score, being the sum of the pannus formation and mononuclear cell infiltration score, was also calculated.
For synergy analysis, data were baseline subtracted using sham treated […] (i.e., no collagen injection), before normalising the values relative to vehicle control. Synergy was calculated using the statistical methods described elsewhere herein.

[5] = CBD 1 mg/kg, HCQ 2.5 mg/kg, alone or combined, observed
[6] = CBD 1 mg/kg, HCQ 2.5 mg/kg, alone or combined, serum
[7] = HCQ 25 mg/kg alone vs CBD 1 mg/kg + HCQ 2.5 mg/kg
[8] = HCQ 25 mg/kg alone vs CBD 1 mg/kg + HCQ 2.5 mg/kg, serum

With `CCN(CCO)CCCC(C)Nc1ccnc2cc(Cl)ccc12` (stereo not shown) [HCQ] the “Relative reduction in white blood cell counts: Neutrophil” value [1] was 0.10, the “Relative reduction in white blood cell counts: WBC” value [1] was 0.11 and the “IL-6, relative inhibition of cytokine release (BALF)” value [2] was 0.08. It also gave an inhibition at 0.63 µg/mL ([3]; Donor 1, HCQ 0.63 μg/mL alone, read-out: FIE (fractional inhibitory effect), IL-1α release) of 3%, an inhibition at 0.63 µg/mL ([3]; Donor 1, HCQ 0.63 μg/mL alone, read-out: FIE (fractional inhibitory effect), IL-1β release) of 8% and an inhibition at 0.63 µg/mL ([3]; Donor 1, HCQ 0.63 μg/mL alone, read-out: FIE (fractional inhibitory effect), IL-6 release) of 12%. The inhibition at 0.63 µg/mL ([3]; Donor 1, HCQ 0.63 μg/mL alone, read-out: FIE (fractional inhibitory effect), TNF-α release) was 0%, the inhibition at 1.25 µg/mL ([3]; Donor 1, HCQ 1.25 μg/mL alone, read-out: FIE (fractional inhibitory effect), IL-1α release) was 1% and the inhibition at 1.25 µg/mL ([3]; Donor 1, HCQ 1.25 μg/mL alone, read-out: FIE (fractional inhibitory effect), IL-1β release) was 7%. The inhibition at 1.25 µg/mL ([3]; Donor 1, HCQ 1.25 μg/mL alone, read-out: FIE (fractional inhibitory effect), IL-6 release) was 0%, the inhibition at 1.25 µg/mL ([3]; Donor 1, HCQ 1.25 μg/mL alone, read-out: FIE (fractional inhibitory effect), TNF-α release) was 8% and the inhibition at 2.5 µg/mL ([3]; Donor 1, HCQ 2.50 μg/mL alone, read-out: FIE (fractional inhibitory effect), IL-1α release) was 12%. For the same compound, the inhibition at 2.5 µg/mL ([3]; Donor 1, HCQ 2.50 μg/mL alone, read-out: FIE (fractional inhibitory effect), IL-1β release) was 8%, the inhibition at 2.5 µg/mL ([3]; Donor 1, HCQ 2.50 μg/mL alone, read-out: FIE (fractional inhibitory effect), IL-6 release) was 10% and the inhibition at 2.5 µg/mL ([3]; Donor 1, HCQ 2.50 μg/mL alone, read-out: FIE (fractional inhibitory effect), MIP-1α release) was 0%. For the same compound, the inhibition at 2.5 µg/mL ([3]; Donor 1, HCQ 2.50 μg/mL alone, read-out: FIE (fractional inhibitory effect), TNF-α release) was 5%, the inhibition at 5 µg/mL ([3]; Donor 1, HCQ 5.00 μg/mL alone, read-out: FIE (fractional inhibitory effect), IL-1α release) was 24% and the inhibition at 5 µg/mL ([3]; Donor 1, HCQ 5.00 μg/mL alone, read-out: FIE (fractional inhibitory effect), IL-1β release) was 17%. The inhibition at 5 µg/mL ([3]; Donor 1, HCQ 5.00 μg/mL alone, read-out: FIE (fractional inhibitory effect), IL-6 release) was 8%, the inhibition at 5 µg/mL ([3]; Donor 1, HCQ 5.00 μg/mL alone, read-out: FIE (fractional inhibitory effect), TNF-α release) was 2% and the inhibition at 10 µg/mL ([3]; Donor 1, HCQ 10.00 μg/mL alone, read-out: FIE (fractional inhibitory effect), IL-1α release) was 50%. The inhibition at 10 µg/mL ([3]; Donor 1, HCQ 10.00 μg/mL alone, read-out: FIE (fractional inhibitory effect), IL-1β release) was 68%, the inhibition at 10 µg/mL ([3]; Donor 1, HCQ 10.00 μg/mL alone, read-out: FIE (fractional inhibitory effect), IL-6 release) was 0% and the inhibition at 10 µg/mL ([3]; Donor 1, HCQ 10.00 μg/mL alone, read-out: FIE (fractional inhibitory effect), TNF-α release) was 4%. The inhibition at 20 µg/mL ([3]; Donor 1, HCQ 20.00 μg/mL alone, read-out: FIE (fractional inhibitory effect), IL-1α release) was 54%, the inhibition at 20 µg/mL ([3]; Donor 1, HCQ 20.00 μg/mL alone, read-out: FIE (fractional inhibitory effect), IL-1β release) was 81% and the inhibition at 20 µg/mL ([3]; Donor 1, HCQ 20.00 μg/mL alone, read-out: FIE (fractional inhibitory effect), IL-6 release) was 12%. It also gave an inhibition at 20 µg/mL ([3]; Donor 1, HCQ 20.00 μg/mL alone, read-out: FIE (fractional inhibitory effect), MIP-1α release) of 0%, an inhibition at 20 µg/mL ([3]; Donor 1, HCQ 20.00 μg/mL alone, read-out: FIE (fractional inhibitory effect), TNF-α release) of 30% and an inhibition at 0.63 µg/mL ([3]; Donor 2, HCQ 0.63 μg/mL alone, read-out: FIE (fractional inhibitory effect), IL-1α release) of 7%. For the same compound, the inhibition at 0.63 µg/mL ([3]; Donor 2, HCQ 0.63 μg/mL alone, read-out: FIE (fractional inhibitory effect), IL-1β release) was 6%, the inhibition at 1.25 µg/mL ([3]; Donor 2, HCQ 1.25 μg/mL alone, read-out: FIE (fractional inhibitory effect), IL-1α release) was 11% and the inhibition at 2.5 µg/mL ([3]; Donor 2, HCQ 2.50 μg/mL alone, read-out: FIE (fractional inhibitory effect), IL-1α release) was 19%. For the same compound, the inhibition at 2.5 µg/mL ([3]; Donor 2, HCQ 2.50 μg/mL alone, read-out: FIE (fractional inhibitory effect), IL-1β release) was 7%, the inhibition at 5 µg/mL ([3]; Donor 2, HCQ 5.00 μg/mL alone, read-out: FIE (fractional inhibitory effect), IL-1α release) was 49% and the inhibition at 5 µg/mL ([3]; Donor 2, HCQ 5.00 μg/mL alone, read-out: FIE (fractional inhibitory effect), TNF-α release) was 2%. For the same compound, the inhibition at 10 µg/mL ([3]; Donor 2, HCQ 10.00 μg/mL alone, read-out: FIE (fractional inhibitory effect), IL-1α release) was 68%, the inhibition at 10 µg/mL ([3]; Donor 2, HCQ 10.00 μg/mL alone, read-out: FIE (fractional inhibitory effect), IL-6 release) was 11% and the inhibition at 10 µg/mL ([3]; Donor 2, HCQ 10.00 μg/mL alone, read-out: FIE (fractional inhibitory effect), MIP-1α release) was 0%. For the same compound, the inhibition at 10 µg/mL ([3]; Donor 2, HCQ 10.00 μg/mL alone, read-out: FIE (fractional inhibitory effect), TNF-α release) was 18%, the inhibition at 20 µg/mL ([3]; Donor 2, HCQ 20.00 μg/mL alone, read-out: FIE (fractional inhibitory effect), IL-1α release) was 63% and the inhibition at 20 µg/mL ([3]; Donor 2, HCQ 20.00 μg/mL alone, read-out: FIE (fractional inhibitory effect), IL-6 release) was 47%. The inhibition at 20 µg/mL ([3]; Donor 2, HCQ 20.00 μg/mL alone, read-out: FIE (fractional inhibitory effect), MIP-1α release) was 0%, the “Clinical score Day 24, relative reduction” value [4, 5] was 0.18 and the “Pannus score, relative reduction” value [4, 5] was 0.07. For the same compound, the “Paw volume Day 24, relative reduction” value [4, 5] was 0.04, the “Total histology score, relative reduction” value [4, 5] was 0.15 and the “Relative reduction in serum cytokine levels: IL-1β” value [4, 6] was 0.37. The “Relative reduction in serum cytokine levels: IL-6” value [4, 6] was 0.51, the “Clinical score Day 24, reduction in disease severity” value [4, 7] was 0.21 and the “Clinical score Day 30, reduction in disease severity” value [4, 7] was 0.26. For the same compound, the “Mononuclear cell infiltration, reduction in disease severity” value [4, 7] was 0.24, the “Pannus score, reduction in disease severity” value [4, 7] was 0.28 and the “Paw volume Day 24, reduction in disease severity” value [4, 7] was 0.10. The “Paw volume Day 30, reduction in disease severity” value [4, 7] was 0.20, the “Total histology score, reduction in disease severity” value [4, 7] was 0.26 and the “IL-1B, reduction” value [4, 8] was 0.25. For the same compound, the “IL-6, reduction” value [4, 8] was 0.36.
